Source: PubChem BioAssay AID330 (DTP/NCI, 2004)
Several values for one entry are separate records, joined by “and”; a condition that tells them apart may be missing. Equal values may be shown once. Toxic doses and inconclusive results are not listed. The calls were made as follows: active = survival T/C of 150% or more; inactive = T/C below 125% in these data.

Test system: P388 leukemia ip, CD2F1 mice, survival T/C
Assay: NCI In Vivo Anticancer Drug Screen. Data for tumor model P388 Leukemia (intraperitoneal) in CD2F1 (CDF1) mice
Conditions: endpoint: median survival time, higher = longer survival
Outline: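 Mice carrying the transplanted tumor received test compound or vehicle. Survival was recorded in each group, and the value is the treated-group measurement divided by that of the vehicle-treated control group.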

[1] = dose: 60.0 mg/kg/injection, schedule: Q01DX005 (ip), vehicle: Klucel (hydroxypropylcellulose) (HPC)
[2] = dose: 120.0 mg/kg/injection, schedule: Q01DX005 (ip), vehicle: Klucel (hydroxypropylcellulose) (HPC)
[3] = dose: 50.0 mg/kg/injection, schedule: Q01DX009 (ip), vehicle: saline with Tween-80
[4] = dose: 100.0 mg/kg/injection, schedule: Q01DX009 (ip), vehicle: saline with Tween-80
[5] = dose: 200.0 mg/kg/injection, schedule: Q01DX009 (ip), vehicle: saline with Tween-80
[6] = dose: 240.0 mg/kg/injection, schedule: Q01DX005 (ip), vehicle: Klucel (hydroxypropylcellulose) (HPC)
[7] = dose: 12.5 mg/kg/injection, schedule: Q01DX009 (ip), vehicle: saline
[8] = dose: 25.0 mg/kg/injection, schedule: Q01DX009 (ip), vehicle: saline
[9] = dose: 50.0 mg/kg/injection, schedule: Q01DX005 (ip), vehicle: saline with Tween-80
[10] = dose: 100.0 mg/kg/injection, schedule: Q01DX005 (ip), vehicle: saline with Tween-80
[11] = dose: 200.0 mg/kg/injection, schedule: Q01DX005 (ip), vehicle: saline with Tween-80
[12] = dose: 120.0 mg/kg/injection, schedule: Q01DX005 (ip), vehicle: saline with Tween-80

Measured: T/C

CN(N=O)C(=O)NNC(=O)N(C)N=O
inactive: dose: 15.0 mg/kg/injection, schedule: Q04DX003 (ip), vehicle: saline with Tween-80 105 % of control | dose: 30.0 mg/kg/injection, schedule: Q01DX009 (ip), vehicle: saline with Tween-80 100 % of control | dose: 30.0 mg/kg/injection, schedule: Q04DX003 (ip), vehicle: saline with Tween-80 110 % of control | dose: 39.6 mg/kg/injection, schedule: Q04DX003 (ip), vehicle: saline with Tween-80 109 % of control | dose: 60.0 mg/kg/injection, schedule: Q04DX003 (ip), vehicle: saline with Tween-80 113 % of control

CC/C(C)=N/SC(c1ccccc1)(c1ccccc1)c1ccccc1
inactive: dose: 100.0 mg/kg/injection, schedule: Q04DX002 (ip), vehicle: saline with Tween-80 101 % of control | dose: 200.0 mg/kg/injection, schedule: Q04DX002 (ip), vehicle: saline with Tween-80 91 % of control | dose: 400.0 mg/kg/injection, schedule: Q04DX002 (ip), vehicle: saline with Tween-80 89 % of control

O=C(c1ccccc1)N1C=CN(C(=O)c2ccccc2)C(c2ccccc2)C1c1ccccc1 (configuration not stated)
inactive: [1] 88 % of control | [2] 90 % of control

C=C1C(=O)OC2CC(C)C3C=CC(=O)C3CC12 (configuration not stated)
inactive: dose: 0.15 mg/kg/injection, schedule: Q01DX009 (ip), vehicle: Klucel (hydroxypropylcellulose) (HPC) 98 % of control | dose: 0.3 mg/kg/injection, schedule: Q01DX009 (ip), vehicle: Klucel (hydroxypropylcellulose) (HPC) 100 % of control | dose: 0.6 mg/kg/injection, schedule: Q01DX009 (ip), vehicle: Klucel (hydroxypropylcellulose) (HPC) 99 % of control and 103 % of control | dose: 2.34 mg/kg/injection, schedule: Q01DX009 (ip), vehicle: Klucel (hydroxypropylcellulose) (HPC) 102 % of control | dose: 2.4 mg/kg/injection, schedule: Q01DX009 (ip), vehicle: Klucel (hydroxypropylcellulose) (HPC) 104 % of control

CC(C)=NNC1=NC(C)(C)P(=O)(N2CCCC2C(=O)O)S1 (configuration not stated)
inactive: dose: 60.0 mg/kg/injection, schedule: Q01DX005 (ip), vehicle: saline 98 % of control | dose: 120.0 mg/kg/injection, schedule: Q01DX005 (ip), vehicle: saline 104 % of control | dose: 240.0 mg/kg/injection, schedule: Q01DX005 (ip), vehicle: saline 102 % of control

COc1ccc(C2=CC(=O)N(C(C)C)C2=O)cc1
inactive: dose: 12.5 mg/kg/injection, schedule: Q01DX009 (ip), vehicle: saline with Tween-80 107 % of control | dose: 25.0 mg/kg/injection, schedule: Q01DX009 (ip), vehicle: saline with Tween-80 116 % of control | [3] 107 % of control | [4] 108 % of control | [5] 109 % of control

CCCCNC(=O)CC(=O)NCCCC
inactive: dose: 25.0 mg/kg/injection, schedule: Q01DX005 (ip), vehicle: Klucel (hydroxypropylcellulose) (HPC) 99 % of control | dose: 50.0 mg/kg/injection, schedule: Q01DX005 (ip), vehicle: Klucel (hydroxypropylcellulose) (HPC) 100 % of control | dose: 100.0 mg/kg/injection, schedule: Q01DX005 (ip), vehicle: Klucel (hydroxypropylcellulose) (HPC) 99 % of control | dose: 200.0 mg/kg/injection, schedule: Q01DX005 (ip), vehicle: Klucel (hydroxypropylcellulose) (HPC) 100 % of control

COC(=O)N1Cc2cc3ccccc3nc2C1C (configuration not stated)
inactive: [1] 101 % of control | [2] 104 % of control | [6] 109 % of control

CCOC(=O)c1nnc(-c2ccccc2)nc1Cl
inactive: [1] 103 % of control | [2] 100 % of control

O=NN(CCCCl)C(=O)NC1CCCCC1
inactive: [7] 86 % of control | [8] 98 % of control | dose: 50.0 mg/kg/injection, schedule: Q01DX009 (ip), vehicle: saline 104 % of control | dose: 100.0 mg/kg/injection, schedule: Q01DX009 (ip), vehicle: saline 107 % of control

CSC1=Nc2cc3c(cc2C(=O)N2CC(OC(C)=O)CC12)OCO3 (configuration not stated)
inactive: [9] 98 % of control | [10] 99 % of control | [11] 97 % of control

CCn1c(=O)c2[nH]c(SC)nc2n(CC)c1=O
inactive: dose: 16.0 mg/kg/injection, schedule: Q01DX009 (ip), vehicle: Klucel (hydroxypropylcellulose) (HPC) 105 % of control | dose: 32.0 mg/kg/injection, schedule: Q01DX009 (ip), vehicle: Klucel (hydroxypropylcellulose) (HPC) 107 % of control | dose: 50.0 mg/kg/injection, schedule: Q01DX009 (ip), vehicle: Klucel (hydroxypropylcellulose) (HPC) 116 % of control | dose: 64.0 mg/kg/injection, schedule: Q01DX009 (ip), vehicle: Klucel (hydroxypropylcellulose) (HPC) 104 % of control | dose: 100.0 mg/kg/injection, schedule: Q01DX009 (ip), vehicle: Klucel (hydroxypropylcellulose) (HPC) 111 % of control | dose: 200.0 mg/kg/injection, schedule: Q01DX009 (ip), vehicle: Klucel (hydroxypropylcellulose) (HPC) 100 % of control

O=C1CSC(=S)N1/N=C/c1ccc(Cl)c(Cl)c1
inactive: dose: 1.56 mg/kg/injection, schedule: Q01DX009 (ip), vehicle: saline with Tween-80 100 % of control | dose: 3.13 mg/kg/injection, schedule: Q01DX009 (ip), vehicle: saline with Tween-80 110 % of control | dose: 6.25 mg/kg/injection, schedule: Q01DX009 (ip), vehicle: saline with Tween-80 120 % of control

N=C(N)N=Nc1ccc(O)cc1
inactive: [12] 119 % of control

CCOC(=O)Cn1c(=O)cc(-c2ccccc2)oc1=O
inactive: [3] 106 % of control | [4] 107 % of control | [5] 90 % of control

CC12CCC3C(CCC4=CC(OC5OC(CO)C(O)C(O)C5O)CCC43C=O)C1(O)CCC2c1ccc(=O)oc1 (configuration not stated)
inactive: dose: 0.12 mg/kg/injection, schedule: Q01DX009 (ip), vehicle: saline + alcohol 103 % of control | dose: 0.25 mg/kg/injection, schedule: Q01DX009 (ip), vehicle: saline + alcohol 106 % of control | dose: 0.5 mg/kg/injection, schedule: Q01DX009 (ip), vehicle: saline + alcohol 106 % of control | dose: 1.0 mg/kg/injection, schedule: Q01DX009 (ip), vehicle: saline + alcohol 103 % of control

Cn1cccc([N+](=O)[O-])c1=O
inactive: dose: 5.0 mg/kg/injection, schedule: Q01DX009 (ip), vehicle: saline 105 % of control and 109 % of control | dose: 10.0 mg/kg/injection, schedule: Q01DX009 (ip), vehicle: saline 101 % of control and 108 % of control | [7] 113 % of control and 114 % of control | dose: 20.0 mg/kg/injection, schedule: Q01DX009 (ip), vehicle: saline 102 % of control and 110 % of control | [8] 100 % of control and 107 % of control | dose: 40.0 mg/kg/injection, schedule: Q01DX009 (ip), vehicle: Klucel (hydroxypropylcellulose) (HPC) 100 % of control | dose: 40.0 mg/kg/injection, schedule: Q01DX009 (ip), vehicle: saline 105 % of control | dose: 60.0 mg/kg/injection, schedule: Q01DX009 (ip), vehicle: Klucel (hydroxypropylcellulose) (HPC) 104 % of control

CC1=C(C(N)=O)C(/C=C/c2ccccc2)NC(=S)N1 (configuration not stated)
inactive: [1] 106 % of control | [2] 100 % of control | [6] 100 % of control

CC1(C)c2ccccc2-c2nc3ccccc3cc2C1N1CCOCC1 (configuration not stated)
inactive: [9] 92 % of control | [10] 104 % of control | [11] 101 % of control

O=c1[nH]cccc1[N+](=O)[O-]
inactive: dose: 100.0 mg/kg/injection, schedule: Q04DX003 (ip), vehicle: saline with Tween-80 100 % of control | dose: 200.0 mg/kg/injection, schedule: Q04DX003 (ip), vehicle: saline with Tween-80 100 % of control | dose: 400.0 mg/kg/injection, schedule: Q04DX003 (ip), vehicle: saline with Tween-80 109 % of control | dose: 600.0 mg/kg/injection, schedule: Q01DX009 (ip), vehicle: saline 90 % of control and 93 % of control

CCOC(=O)c1c(C)[nH]c(-c2ccccc2)c1NS(=O)(=O)c1ccc(N)cc1
inactive: dose: 60.0 mg/kg/injection, schedule: Q01DX005 (ip), vehicle: saline with Tween-80 93 % of control | [12] 94 % of control

COc1ccc(C2(O)OCC(COc3cc(C)c(Cl)c(C)c3)O2)cc1OC (configuration not stated)
inactive: dose: 60.0 mg/kg/injection, schedule: Q01DX005 (ip), vehicle: DMSO 114 % of control | dose: 120.0 mg/kg/injection, schedule: Q01DX005 (ip), vehicle: DMSO 123 % of control | dose: 240.0 mg/kg/injection, schedule: Q01DX005 (ip), vehicle: DMSO 109 % of control

Sc1cn2ccccc2n1
inactive: dose: 50.0 mg/kg/injection, schedule: Q04DX003 (ip), vehicle: saline 105 % of control | dose: 100.0 mg/kg/injection, schedule: Q04DX003 (ip), vehicle: saline 97 % of control | dose: 200.0 mg/kg/injection, schedule: Q04DX003 (ip), vehicle: saline 103 % of control
